A short description of one data set: Solubility. The format is physicochemical.
Data set [1] can be described thus: Stability in aqueous solution. The note with it: pH 3-9, heating at 60° C. for 10 minutes. Type of data set: physicochemical.
In data set [2] the test system is Escherichia coli IFO 12734. Description: Antibiotic-potentiating activity, paper disc growth inhibition zone, Escherichia coli IFO 12734. The format is cell-based. Here is the method:
The potency of the compound of the formula (II) can be determined, for instance, by the cup method or paper disc method using bouillon agar containing 0.05 μg/ml of cefmenoxime with Escherichia coli IFO 12734 as the test organism. […]
(§1) *The test was performed using a bouillon agar medium containing the
antibiotic as specified and a paper disc, 8 mm in diameter.
**A paper disc, 8 mm in diameter, was impregnated with 25 μl of the […]

Data set [3] relates to Proteus mirabilis ATCC 21100. Description: Antibiotic-potentiating activity, paper disc growth inhibition zone, Proteus mirabilis ATCC 21100. Type of data set: cell-based. Here is the method: as §1
antibiotic as specified and a paper disc, 8 mm in diameter. […]
*The test was performed under the same conditions as noted for Table 1
except for the test organism and the concentration of each coexisting

Another data set deals with Escherichia coli. The data set is described as follows: Observation of the culture broths under a phase contrast microscope. The format is cell-based. The following applies: for Form of cells under phase contrast microscope: antibiotic alone, F2 or F3 not added. How it is done:
(§2) To 8 ml of YAB medium (1.75% Difco antibiotic medium No. 3, 0.5% Difco yeast extract) containing 12% (w/v) of sucrose, there were added 1 ml of water, 50 μg/ml cephalexin solution or 10 μg/ml cefmenoxime solution, and the medium was inoculated with 1 ml of a preculture in YAB medium at an early logarithmic growth phase and incubated with shaking at 37° C. for 2 hours. Thereafter, the absorbance of the culture broth was measured at 600 nm using a Shimadzu-Bausch & Lomb Spectronic 20 colorimeter.

The test system of data set [4] is Escherichia coli IFO 12734. The data set is described as follows: Inhibition of growth of Escherichia coli in liquid culture (absorbance at 600 nm). The format is cell-based.
In data set [5] the test system is Escherichia coli IFO 12734. The description is as above. The format is cell-based. Here is the method:
Table 5: Inhibition of growth of Escherichia coli IFO 12734 in the copresence of F2 (obtained in Example 1) and cephalexin or cefmenoxime.
as §2
The source holds these as a separate data set.

Data set [6] has as its system β-lactamase producing bacteria. The note with it: D. A. Leigh et al., 1981; cited from earlier work.
Another data set relates to β-lactamases. The following applies: D. A. Leigh et al., 1981; cited from earlier work.
Setting [7] is: petroleum ether, hexane, diethyl ether, benzene, ethyl acetate and chloroform.
The mark [8] stands for this setting: F3 of Example 5, 1 μg/ml in test solution, no addition.
The mark [9] stands for this setting: F3 of Example 5, 5 μg/ml in test solution, no addition.
The mark [10] stands for this setting: F3 of Example 5, 25 μg/ml in test solution, no addition.
[11] abbreviates: F3 of Example 5, 125 μg/ml in test solution, no addition.
The mark [12] stands for this setting: F3 of Example 5, 1000 μg/ml in test solution, no addition.

Several values for one entry are separate records, joined by “and”; a condition that tells them apart may be missing. Identical values can stand only once. Entries after “also recorded” stand apart in the source; their conditions may differ. Counter-ions that a name gives are not always drawn.

For the compound `CC(=O)NC1C(OC2CC(C(=O)O)NC2CO)OC(CO)C(OS(=O)(=O)O)C1O` (stereo not shown) [F3 monosodium salt], the Solubility entry in the data set “Solubility” (acetone) is listed as “only sparingly soluble”; in “Solubility” (dimethyl sulfoxide), “soluble”; in the data set “Solubility” (ethanol and pyridine), “only sparingly soluble”; in “Solubility” (methanol), “soluble”; in the data set “Solubility” (setting [7]) it was “Insoluble”; in “Solubility” (water) it was “readily soluble”. Moreover, the Stability result in data set [1] is given as “Stable”.

Regarding `CC(=O)NC1C(OC2CC(C(=O)O)NC2CO)OC(CO)C(OS(=O)(=O)O)C1O` (stereo not shown) [F3], the “Diameter of growth inhibition zone” value in data set [2] (F3 of Example 5, 1 μg/ml in test solution, 0.03 μg/ml of mecillinam) is reported as below 8 mm; in data set [2] (F3 of Example 5, 1 μg/ml in test solution, 0.05 μg/ml of cefmenoxime), 10 mm; in data set [2] (setting [8]) it was below 8 mm; in [2] (F3 of Example 5, 5 μg/ml in test solution, 0.03 μg/ml of mecillinam), below 8 mm; in data set [2] (F3 of Example 5, 5 μg/ml in test solution, 0.05 μg/ml of cefmenoxime), 12.5 mm; in data set [2] (setting [9]) it was below 8 mm. For the same compound, the “Diameter of growth inhibition zone” value is listed as 9 mm in data set [2] (F3 of Example 5, 25 μg/ml in test solution, 0.03 μg/ml of mecillinam); 15 mm in [2] (F3 of Example 5, 25 μg/ml in test solution, 0.05 μg/ml of cefmenoxime); below 8 mm in data set [2] (setting [10]); 17.5 mm in [2] (F3 of Example 5, 125 μg/ml in test solution, 0.03 μg/ml of mecillinam); 26 mm in [2] (F3 of Example 5, 125 μg/ml in test solution, 0.05 μg/ml of cefmenoxime); below 8 mm in data set [2] (setting [11]). For the same compound, the “Diameter of growth inhibition zone” value is reported as 28.5 mm in data set [2] (F3 of Example 5, 1000 μg/ml in test solution, 0.03 μg/ml of mecillinam); 38 mm in [2] (F3 of Example 5, 1000 μg/ml in test solution, 0.05 μg/ml of cefmenoxime); below 8 mm in [2] (setting [12]); 9 mm in data set [3] (F3 of Example 5, 1 μg/ml in test solution, 0.01 μg/ml of cefmenoxime); below 8 mm in [3] (F3 of Example 5, 1 μg/ml in test solution, 0.05 μg/ml of mecillinam); below 8 mm in data set [3] (setting [8]). Moreover, the “Diameter of growth inhibition zone” value in data set [3] (F3 of Example 5, 5 μg/ml in test solution, 0.01 μg/ml of cefmenoxime) was 12 mm; in [3] (F3 of Example 5, 5 μg/ml in test solution, 0.05 μg/ml of mecillinam), 9 mm; in data set [3] (setting [9]), below 8 mm; in [3] (F3 of Example 5, 25 μg/ml in test solution, 0.01 μg/ml of cefmenoxime), 21 mm; in data set [3] (F3 of Example 5, 25 μg/ml in test solution, 0.05 μg/ml of mecillinam) it was 13.5 mm; in data set [3] (setting [10]) it was below 8 mm. The “Diameter of growth inhibition zone” value is reported as 28.5 mm in data set [3] (F3 of Example 5, 125 μg/ml in test solution, 0.01 μg/ml of cefmenoxime); 19 mm in data set [3] (F3 of Example 5, 125 μg/ml in test solution, 0.05 μg/ml of mecillinam); below 8 mm in data set [3] (setting [11]); 32.5 mm in data set [3] (F3 of Example 5, 1000 μg/ml in test solution, 0.01 μg/ml of cefmenoxime); 30 mm in [3] (F3 of Example 5, 1000 μg/ml in test solution, 0.05 μg/ml of mecillinam); below 8 mm in [3] (setting [12]). For the same compound, the “Swelling and bacteriolysis under phase contrast microscope” value with Escherichia coli (in the presence of cephalexin or cefmenoxime) was “partial swelling occurred and bacteriolysis proceeded”. Further, the “Elongation of cells under phase contrast microscope” value with Escherichia coli (in the presence of cephalexin or cefmenoxime, in dependence on the addition level) is “elongation was inhibited”. Further, the “Absorbance at 600 nm” value in [4] (final F3 (Example 5) 1 μg/ml, 1 μg/ml of cefmenoxime) is recorded as 2.2; in data set [4] (final F3 (Example 5) 1 μg/ml, no addition), 3.7; in [4] (final F3 (Example 5) 10 μg/ml, 1 μg/ml of cefmenoxime), 0.6; in data set [4] (final F3 (Example 5) 10 μg/ml, no addition) it was 3.7; in data set [4] (final F3 (Example 5) 100 μg/ml, 1 μg/ml of cefmenoxime), 0.6; in [4] (final F3 (Example 5) 100 μg/ml, no addition), 3.7. The “Inhibition of growth of Escherichia coli” value in data set [5] (in the presence of cephalexin or cefmenoxime, decrease in absorbance) is “inhibits the growth of Escherichia coli”.

On to `CC(=O)NC1C(OC2CC(C(=O)NCCS(=O)(=O)O)NC2CO)OC(CO)C(O)C1O` (stereo not shown) [F4], for which the “Diameter of growth inhibition zone” value in data set [2] (F4 of Example 7, 10 μg/ml in test solution, 0.03 μg/ml mecillinam) is on record as below 8 mm; in [2] (F4 of Example 7, 10 μg/ml in test solution, 0.05 μg/ml cefmenoxime), below 8 mm; in data set [2] (F4 of Example 7, 10 μg/ml in test solution, no addition) it was below 8 mm; in [2] (F4 of Example 7, 100 μg/ml in test solution, 0.03 μg/ml mecillinam), 13 mm; in data set [2] (F4 of Example 7, 100 μg/ml in test solution, 0.05 μg/ml cefmenoxime), 15 mm; in data set [2] (F4 of Example 7, 100 μg/ml in test solution, no addition), below 8 mm. Moreover, the “Diameter of growth inhibition zone” value is 23 mm in [2] (F4 of Example 7, 1000 μg/ml in test solution, 0.03 μg/ml mecillinam); 26 mm in data set [2] (F4 of Example 7, 1000 μg/ml in test solution, 0.05 μg/ml cefmenoxime); below 8 mm in data set [2] (F4 of Example 7, 1000 μg/ml in test solution, no addition).

Take `CO/N=C(\C(=O)N[C@@H]1C(=O)N2C(C(=O)O)=C(CSc3nnnn3C)CS[C@H]12)c1csc(N)n1` [cefmenoxime, reference compound]: the “Diameter of growth inhibition zone” value in data set [2] (0.05 μg/ml cefmenoxime alone (F2, F3 or F4 0 μg/ml)) is below 8 mm; in data set [3] (0.01 μg/ml cefmenoxime alone (F2 or F3 0 μg/ml)), below 8 mm. The “Form of cells under phase contrast microscope” value in the data set on Escherichia coli is recorded as “much elongated form”. Besides, the “Absorbance at 600 nm” value in [5] (1 μg/ml cefmenoxime alone (F2 or F3 0 μg/ml)) is 1.95 and 1.90 and 2.9.

As to `CC1=C(C(=O)O)N2C(=O)[C@@H](NC(=O)[C@H](N)c3ccccc3)[C@H]2SC1` [cephalexin, reference compound], the “Form of cells under phase contrast microscope” value in the data set on Escherichia coli was “much elongated form”. For the same compound, in data set [5] (5 μg/ml cephalexin alone (F2 0 μg/ml)), the “Absorbance at 600 nm” value is 2.35 and 2.15.

On to `O=C(O)[C@H]1/C(=C/CO)O[C@@H]2CC(=O)N21` [clavulanic acid], for which the “Potentiation of activity of β-lactam antibiotics against β-lactamase producing bacteria” value in data set [6] is reported as “synergistically potentiates their activity”. Further, the “Inactivation of β-lactam antibiotics by β-lactamases” value in the data set on β-lactamases is reported as “prevents inactivation”.

Turning to `CC(=O)NC1C(OC2CC(C(=O)NCCS(=O)(=O)O)NC2CO)OC(CO)C(OS(=O)(=O)O)C1O` (stereo not shown) [disodium salt of F2], the Solubility result was “Insoluble” in “Solubility” (acetone); “soluble” in the data set “Solubility” (dimethyl sulfoxide); “spargingly soluble; also recorded: sparingly soluble” in “Solubility” (ethanol and pyridine); “spargingly soluble; also recorded: sparingly soluble” in the data set “Solubility” (methanol); “Insoluble” in “Solubility” (setting [7]); “readily soluble” in the data set “Solubility” (water). The Stability entry in [1] is given as “Stable”.

As to `CC1(C)S[C@@H]2[C@H](/N=C/N3CCCCCC3)C(=O)N2[C@H]1C(=O)O` [mecillinam, reference compound], the “Diameter of growth inhibition zone” value in [2] (0.03 μg/ml mecillinam alone (F2, F3 or F4 0 μg/ml)) is listed as below 8 mm; in data set [3] (0.05 μg/ml mecillinam alone (F2 or F3 0 μg/ml)), below 8 mm.

Take `CC(=O)NC1C(OC2CC(C(=O)NCCS(=O)(=O)O)NC2CO)OC(CO)C(OS(=O)(=O)O)C1O` (stereo not shown) [monosodium salt of F2]: the Solubility entry in “Solubility” (acetone) is “sparingly soluble”; in the data set “Solubility” (dimethyl sulfoxide) it was “soluble”; in the data set “Solubility” (ethanol and pyridine) it was “sparingly soluble”; in the data set “Solubility” (methanol) it was “soluble”; in the data set “Solubility” (setting [7]), “Insoluble”; in the data set “Solubility” (water) it was “readily soluble”. For the same compound, the Stability entry in [1] was “Stable”.

Values taken from patent US4504655A, “Substances potentiating the activity of antibiotics and their production” (Takeda Chemical Industries, Ltd., priority 1981, dated 1985).
